Assay results reported in ChEMBL document CHEMBL1159302, “Symplostatin 3, a new dolastatin 10 analogue from the marine cyanobacterium Symploca sp. VP452” (J Nat Prod, 2002).
Activity calls are given as the source filed them. The calls are words filed in the database; no cut-off is given here. Non-standard residues stand in square brackets, D forms with d. Residues, ends and D or L forms follow the SMILES beside them. *: point of attachment. Dolaproine = CO[C@@H]([C@@H]1CCCN1)[C@@H](C)C(=O)O; Dil = CC[C@H](C)[C@H](NC)[C@@H](CC(=O)O)OC; NMe2Val = CC(C)[C@@H](C(=O)*)N(C)C; PhLac = O=C(O)[C@@H](O)Cc1ccccc1

Columns and labels:
Type in all cases: functional, cell-based
A10 [1] = assay: Induction of actin filament disrupting activity in rat A10 cells by rhodamine-phalloidin staining
A10 [2] = assay: Induction of cellular microtubule disrupting activity in rat A10 cells at 0.1 ug/ml after 24 hrs by indirect immunofluorescence technique
A10 [3] = assay: Effect on morphology in rat A10 cells assessed as breakdown of nucleus into micronuclei
KB = assay: Cytotoxicity against human KB cells by SRB assay
A10 [4] = assay: Induction of cellular microtubule disrupting activity in rat A10 cells at 1 ug/ml after 24 hrs by indirect immunofluorescence technique
LoVo = assay: Cytotoxicity against human LoVo cells by SRB assay

CC[C@H](C)[C@@H]([C@@H](CC(=O)N1CCC[C@H]1[C@H](OC)[C@@H](C)C(=O)O[C@@H](Cc1ccccc1)C(=O)O)OC)N(C)C(=O)[C@@H](NC(=O)[C@H](C(C)C)N(C)C)C(C)C [SYMPLOSTATIN 3] (NMe2Val-V[Dil][Dolaproine][PhLac]-OH)
Activity (A10 [1]): inactive
Activity (A10 [2]): Active
Activity (A10 [3]): Active
IC50 (KB): 3.9 nM
Activity (A10 [4]): Active
IC50 (LoVo): 10.3 nM
